“Also recorded” adds a separate entry of the source.
Experiments:
[1] = test system: ASK1 (ser 967, ser 83, thr 845); experiment: Phosphorylation of ASK1 sites in ASK1-transfected 293T cells (immunoblotting); format: cell-based; settings: for Phosphorylation of ASK1 at ser 967 / Phosphorylation of ASK1 at ser 83 and thr 845: ASK1-transfected 293T; for Phosphorylation of ASK1 at ser 967: 100 μM compound, two hours; for Phosphorylation of ASK1 at ser 83 and thr 845: up to 100 μM
Experimental: (§1) Phosphorylation of ASK1 at various sites was inspected. 293T cells were transfected with pcDNA-ASK1-HA. One day later, cells were incubated with DMSO (0.4%) or 100 μM compound 6239507 (#1) for two hours. Cell extracts were prepared using lysis buffer and were subjected to immunoblotting using anti-phospho ASK1 antibodies or anti HA antibody as indicated (A). The relative density of each phosphorylated ASK band was calculated by imageJ software (B). In (C), compounds from (A) were compared in activity against thapsigargin-induced cell death. […] (D) 293T cells were transfected with pcDNA-ASK1-HA and pEBG-GST-14-3-3. One day later cells were incubated with DMSO (0.4%) or 100 μM of the indicated compound for two hours. Then cells were treated with thapsigargin (20 μM) for the indicated time. Cell extracts were prepared using lysis buffer, and 14-3-3 proteins were immunoprecipitated with […] sepharose beads. ASK1 protein binding with 14-3-3 was visualized by immunoblotting using anti-HA antibody. Anti-phospho ASK1 (ser967) antibody was used to detect phosphorylation of ASK1 at each time point.
Thus, while not directly inhibiting ASK1 kinase activity, these events are predicted to reduce ASK1 in vivo kinase activity. It is possible that compound 5962123 inhibits a protein phosphatase that regulates phosphorylation of Ser967.
Suppression of thapsigargin-induced phosphorylation of p38MAPK was also measured by a quantitative ELISA-methods, with IC50 for p38MAPK phosphorylation estimated at <5 μM. In contrast, thapsigargin-induced expression of CHOP, expression of ATF4, proteolytic processing of ATF6, phosphorylation of eIF2a (Ser 51), auto-phosphorylation of Ire1a or auto-phosphorylation of ASK1 were not inhibited directly by CID-2878746 at concentrations up to 50 μM tested by in vitro kinase assay using p32-γ-ATP substrate. […] Thapsigargin-induced reductions in phosphorylation of ASK1 at the serine 967 site in ASK1 transfected 293T cells are inhibited by compound 5962123 at concentrations of 50-100 μM, as determined by immunoblotting using anti-phospho-specific (ser 967) antibody, but thapsigargin-induced changes in phosphorylation of ASK1 at ser 83 and thr 845 are not modulated by compound 5962123 at concentrations as high as 100 μM in ASK1-transfected HEK293T cells.
Experiments were also performed to determine whether compound 6239507 enhances phosphorylation of ASK1 at Ser 967 before and after ER stress induction (i.e., thapsigargin treatment). 293T cells were transfected with pcDNA-ASK1-HA. One day later, cells were incubated with DMSO (0.4%) or 100 μM compound 6239507 (#1) for two hours. Then cells were treated with thapsigargin (20 μM) for the indicated times. Cell extracts were prepared by lysis buffer and were subjected to immunoblotting with anti-phospho ASK1 Ser967 antibody or anti HA antibody. The relative density of phosphor ser967 bands were calculated by imageJ software (mean ±SD).
The ser 967 site of ASK1 is known to down-regulate ASK1 activity by phosphorylation (Goldman et al., J. Biol. Chem. 279:10442-10449, 2004) via 14-3-3 binding. […] 293T cells were transfected with pcDNA-ASK1-HA. One day later, cells were incubated with DMSO (0.4%) or 100 μM compound 6239507 (#1) for two hours. Cell extracts were prepared using lysis buffer and were subjected to immunoblotting using anti-phospho ASK1 antibodies or anti HA antibody as indicated. The relative density of each phosphorylated ASK band was calculated by imageJ software. The compounds were compared in activity against thapsigargin-induced cell death. 293T cells were transfected with pcDNA-ASK1-HA and pEBG-GST-14-3-3. One day later cells were incubated with DMSO (0.4%) or 100 μM of the indicated compound for two hours. Then cells were treated with thapsigargin (20 μM) for the indicated time. Cell extracts were prepared using lysis buffer, and 14-3-3 proteins were immunoprecipitated with […] sepharose beads. […]

[2] = test system: ASK1 binding to 14-3-3 protein; experiment: Co-immunoprecipitation of ASK1 with 14-3-3 in transfected 293T cells; format: cell-based; settings: thapsigargin-stimulated transfected 293T; 100 μM where stated
Experimental: as §1, with “point. […]” for “point.”
The ser 967 site of ASK1 is known to down-regulate ASK1 activity by phosphorylation (Goldman et al., J. Biol. Chem. 279:10442-10449, 2004) via 14-3-3 binding. […] The relative density of each phosphorylated ASK band was calculated by imageJ software. […]

COc1ccc(C2CC(=O)C3=C(C2)Nc2ccccc2NC3c2cccc(Oc3ccccc3)c2)cc1OC (stereo not drawn) [Compound 6239507]
Phosphorylation of ASK1 at ser 967 [1]: enhance phosphorylation; also recorded: intensified | Phosphorylation of ASK1 at ser 967 ([1]; listed as 1): enhanced phosphorylation of ser 967 only | Phosphorylation of ASK1 at ser 83 and thr 845 [1]: not ser 83 or thr 845 | Binding of ASK1 to 14-3-3 protein [2]: inhibits dissociation of 14-3-3 from ASK1

CCN(CC)c1ccc(C2Nc3ccccc3NC3=C2C(=O)CC(c2ccccc2)C3)cc1 (stereo not drawn) [Compound 5962123, 6-(4-diethylaminophenyl)-9-phenyl-5,6,8,9,10,11-hexahydrobenzo[c][1,5]benzodiazepin-7-one]
Phosphorylation of ASK1 at ser 83 and thr 845 [1]: not modulated | Thapsigargin-stimulated dephosphorylation of ASK1 at serine 967 ([1]; ASK1-transfected HEK293T, 50 μM, 50-100 μM): inhibited | Binding of ASK1 to 14-3-3 protein [2]: increased 14-3-3 binding to ASK1; also recorded: increases binding

COc1ccc(C2CC(=O)C3=C(C2)Nc2ccccc2NC3c2ccccc2C(F)(F)F)cc1OC (stereo not drawn) [Compound 6237735]
Phosphorylation of ASK1 at ser 967 [1]: enhanced phosphorylation of ser 967 only | Phosphorylation of ASK1 at ser 83 and thr 845 [1]: not ser 83 or thr 845

Source: patent US20080293699A1, “Inhibitors of thapsigargin-induced cell death” (priority 2007, published 2008)
